We go through 4 molecules from patent US20110055943A1, “NOVEL THERAPEUTIC TARGETS IN INFLAMMATORY BOWEL DISEASE” (SALIX PHARMACEUTICALS, LTD., priority 2007, published 2011).

Data set [1] can be described thus: in vivo. It counts as in vivo. The settings on record: mouse, in vivo, po, 10 mg/kg. Here is the method:
(§1) The maximum concentration in serum (Cmax) was obtained from the original data. […] Intestinal contents were weighted, and homogenized in methanol (100 mg/ml). The homogenate was centrifuged at 14,000 rpm for 10 min at 4° C.
(§2) The mass spectrometer was operated in the turbo ion spray mode with positive ion detection. The turbo ion spray temperature was maintained at 300° C., and a voltage of 4.8 kV was applied to the sprayer needle. N2 was used as the turbo ion spray and nebulizing gas.

Data set [2] in a line: Intestinal tract distribution of RIF and RIFax in mice (intestinal contents, LC-MS/MS). The format is in vivo. The settings on record: mouse, in vivo, po, 10 mg/kg. The protocol: as §1, §2
Data set [3] has as its system CYP3A. Put plainly: Pharmacokinetics of MDZ in hPXR mice pretreated with RIFax. The settings on record: MDZ 2.5 mg/kg oral; for AUC0-90 min / Cmax / Tmax: serum; for AUC0-90 min ratio RIFax/Cont / Cmax ratio RIFax/Cont / Tmax ratio RIFax/Cont: hPXR mice, RIFax pretreated vs control. Here is the method:
Blood samples were collected from suborbital veins using heparinized tubes at pre-dose, 5, 10, 20, 30, 60, and 90 min after administration of MDZ. Serum was separated by centrifugation at 8,000 g for 10 min. For MDZ and 1′-OH-MDZ extraction, 50 μl of serum was mixed with 150 μl of phosphate-buffered saline, 200 μl of ethyl acetate, and 200 μl of methyl t-butyl ether. The mixture was centrifuged at 3,000 rpm for 5 min at 4° C. The organic layer was then transferred to a new tube, dried with N2, and reconstituted in 100 μl of 70% aqueous methanol and 30% H2O containing 0.1% formic acid. […] Pharmacokinetic parameters for MDZ and 1′-OH-MDZ were estimated from the plasma concentration-time data by a non-compartmental approach using WinNonlin (Pharsight, Mountain View, Calif.). The area under the serum concentration-time curve (AUC0-90 min) was calculated by the trapezoidal rule. The maximum concentration in serum (Cmax) and its corresponding time (Tmax) were obtained from the original data.

The target of data set [4] is T1, PXR (Mus musculus, UniProt O54915).
T1 construct: host or cells: mice (DSS colitis model)
T1 sequence (O54915 1-431): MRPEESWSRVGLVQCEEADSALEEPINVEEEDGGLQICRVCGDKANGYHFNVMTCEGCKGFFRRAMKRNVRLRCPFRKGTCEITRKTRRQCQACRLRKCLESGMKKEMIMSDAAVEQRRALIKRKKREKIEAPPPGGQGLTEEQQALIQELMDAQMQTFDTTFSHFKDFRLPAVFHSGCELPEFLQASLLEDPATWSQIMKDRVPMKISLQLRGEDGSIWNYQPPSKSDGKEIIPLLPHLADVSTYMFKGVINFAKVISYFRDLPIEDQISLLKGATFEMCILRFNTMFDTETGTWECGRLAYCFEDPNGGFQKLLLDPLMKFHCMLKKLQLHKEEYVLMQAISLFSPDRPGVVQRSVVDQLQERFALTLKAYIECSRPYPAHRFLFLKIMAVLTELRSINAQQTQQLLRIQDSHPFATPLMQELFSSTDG
Particulars: dextran sulfate sodium (DSS)-induced BD mouse model; cited from earlier work.

Data set [5] deals with MRP2. The settings on record: rat hepatocytes; cited from earlier work.
Data set [6] concerns MRP2. Particulars: mouse PXR ligand; cited from earlier work.
[7] abbreviates: Cont: hPXR mice without RIFax pretreatment.
Setting [8] is: hPXR mice pretreated with RIFax 10 mg/kg/day for 3 days.

As for `CO[C@H]1/C=C/O[C@@]2(C)Oc3c(C)c(O)c4c(O)c(c(/C=N/N5CCN(C)CC5)c(O)c4c3C2=O)NC(=O)/C(C)=C\C=C\[C@H](C)[C@H](O)[C@@H](C)[C@@H](O)[C@@H](C)[C@H](OC(C)=O)[C@@H]1C` [RIF, 3-(4-Methylpiperazinyliminomethyl)rifamycin SV], the Cmax in data set [1] was 2750 nM. For the same molecule, the “concentration in the small intestine (content)” value in data set [2] was “below 20 μg/g”.
Consider `OCc1ncc2n1-c1ccc(Cl)cc1C(c1ccccc1F)=NC2` [1′-OH-MDZ, 1′-Hydroxymidazolam], for which, in data set [3] (setting [7]), the AUC0-90 min stood at 32.4 ± 3.0 µmol·min/L, the Cmax was 562 ± 4.9 nM and the Tmax is 25.0 ± 7.1 min. In data set [3] (setting [8]), the AUC0-90 min turned out to be 36.5 ± 4.2 µmol·min/L, the Cmax is 823 ± 55.2 nM and the Tmax is recorded as 7.5 ± 3.5 min. In data set [3], the “AUC0-90 min ratio RIFax/Cont” value is recorded as 1.1, the “Cmax ratio RIFax/Cont” value was found to be 1.5 and the “Tmax ratio RIFax/Cont” value is reported as 0.3.
For the molecule `Cc1ncc2n1-c1ccc(Cl)cc1C(c1ccccc1F)=NC2` [MDZ, midazolam], in data set [3] (setting [7]), the AUC0-90 min amounted to 8.0 ± 0.4 µmol·min/L, the Cmax came out at 477 ± 40.3 nM and the Tmax was determined as 10.0 ± 0.0 min. Moreover, in data set [3] (setting [8]), the AUC0-90 min came to 8.9 ± 0.7 µmol·min/L, the Cmax stood at 383 ± 19.1 nM and the Tmax worked out at 12.5 ± 10.6 min. In addition, in data set [3], the “AUC0-90 min ratio RIFax/Cont” value is 1.1, the “Cmax ratio RIFax/Cont” value was found to be 0.8 and the “Tmax ratio RIFax/Cont” value came out at 1.3.
Take `CC(=O)[C@H]1[C@H](C#N)C[C@H]2[C@@H]3CC=C4C[C@@H](O)CC[C@]4(C)[C@H]3CC[C@@]21C` [PCN]: the DSS-induced colitis result in data set [4] is given as “significantly prevented”. Also, in data set [5], the MRP2 activation entry is given as “activated”. Also, the MRP2 induction entry in data set [6] is listed as “not significantly induced”.

The term Cmax denotes the maximum level reached in the sampled fluid or tissue. Broadly, the Tmax is the time at which the peak concentration occurs.
